Source: US11324725B2, “Compositions and methods for the inhibition of pruritus” (The United States of America, as represented by the …, priority 2017, dated 2022)
Entries after “also recorded” stand apart in the source; their conditions may differ.

What was measured:
[1] = Cytotoxicity counter-screen (CellTiter-Glo); format: cell-based, human; settings: human, HEK-hNpr1-cGMP-sensor cells; 2 hours with compound, CellTiter-Glo
Experimental: (§1) Compound cytotoxicity was tested with Promega's CellTiter-Glo™ assay which measures cellular adenosine triphosphate content, a surrogate of metabolic activity, with a firefly luciferase reagent. A cytotoxicity counter-screen using HEK-hNpr1-cGMP-sensor cells was performed on the 1,408 follow-up compounds. Cells (1.5×10^3) cells were plated in 4 μL C02-independent media in white, solid bottom TC-treated 1536-well plates (Greiner Bio-One). Cells were incubated at 37° C., 5% CO2 and 95% humidity for 16 hours. Compound transfer was performed as described for qHTS along with DMSO and a titration of Digitonin from a top concentration of 115 μM to 3.5 nM in columns 1-4 of each assay plate as vehicle and cytotoxicity controls, respectively. Cells were incubated with compound for 2 hours at 37° C. CellTiter-Glo™ reagent (Promega) (3 μl) was added to each well with a BioRAPTR Flying Reagent Dispenser™ (Beckman Coulter) and plates were incubated for 10 min at room temperature, protected from light. Luminescence was measured on a ViewLux™ plate reader. Data were normalized to the average signal of DMSO-treated wells as 0% and the average signal of wells treated with 115 μM Digitonin as −100% activity and analyzed as above.

[2] = test system: HEK-hNpr1-cGMP-sensor cells; test: Cytotoxicity counter-screen (CellTiter-Glo); format: cell-based, human; settings: for Imax, cytotoxicity: −100% = 115 μM Digitonin, n.d. = inhibition not detectable at all
Experimental: as §1

[3] = target: Firefly luciferase (Photinus pyralis, UniProt P08659); test: Biochemical Firefly luciferase enzymatic counter-screen; settings: for Direct effect on Firefly luciferase (in words): FLuc in vitro; for Imax, Fluc in vitro: −100% = 57.5 μM PTC124, n.d. = inhibition not detectable at all
Sequence of Firefly luciferase (P08659 whole entry): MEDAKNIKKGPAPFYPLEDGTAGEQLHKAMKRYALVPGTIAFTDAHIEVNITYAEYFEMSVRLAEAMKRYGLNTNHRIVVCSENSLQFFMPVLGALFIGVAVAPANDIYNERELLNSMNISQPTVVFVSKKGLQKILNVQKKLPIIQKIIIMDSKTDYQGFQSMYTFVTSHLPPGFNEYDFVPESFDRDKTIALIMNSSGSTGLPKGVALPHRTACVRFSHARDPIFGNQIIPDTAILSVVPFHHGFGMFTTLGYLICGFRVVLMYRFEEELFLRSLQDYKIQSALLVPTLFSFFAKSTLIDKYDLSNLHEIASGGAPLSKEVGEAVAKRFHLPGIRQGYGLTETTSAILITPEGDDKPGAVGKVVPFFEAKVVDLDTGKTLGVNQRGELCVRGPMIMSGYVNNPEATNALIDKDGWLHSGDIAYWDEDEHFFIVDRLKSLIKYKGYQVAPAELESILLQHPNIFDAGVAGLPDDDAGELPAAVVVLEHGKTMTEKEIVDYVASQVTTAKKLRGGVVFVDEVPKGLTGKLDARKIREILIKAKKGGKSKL
Experimental: Direct effects of compounds on firefly luciferase enzymatic activity were tested in vitro. A Firefly luciferase enzyme assay was performed on the 1,408 follow-up compounds. To achieve half-maximal reaction velocity, the D-Luciferin substrate concentration equaled Km and the assay was otherwise performed according to Jang et al., ACS Chem. Bio., 7: 1205-1213 (2012) (which is incorporated herein by reference, in its entirety), as follows: 3 μl of substrate-buffer solution (0.01 mM D-Luciferin, 0.01 mM ATP, 50 mM Tris Acetate, 10 mM Mg Acetate, 0.01% Tween-20 and 0.038% BSA final concentrations) were dispensed into white, solid bottom medium bind 1536-well plates (Greiner Bio-One) with a BioRAPTR Flying Reagent Dispenser™ (Beckman Coulter). Compounds were transferred as described for qHTS along with DMSO (as a negative control) and titrations of PTC124 (as a positive control), ranging from the top concentration of 57.5 μM to 4.0 μM in columns 1-4 of each plate as vehicle and positive controls, respectively. Luciferase enzyme-buffer solution (1 μl) (10 nM P. pyralis luciferase in 50 mM Tris Acetate final concentration) was dispensed and after a 5-minute incubation at room temperature, luminescence was read on a ViewLux™ plate reader.

[4] = test system: soluble guanylate cyclase / pGloSensor-40F reporter in HEK-cGMP-sensor cells; test: Counter-screen, SNP-stimulated HEK-cGMP-sensor cells; format: cell-based, human
Description: In order to identify small molecular compounds that inhibit the Npr1 receptor a high-throughput assay to probe inhibition of the receptor guanylate cyclase Npr1 was developed. The assay was designed taking advantage of Promega's GloSensor™ technology (Promega, Madison, Wis.). This technology involves the expression of a cyclic guanosine monophosphate (cGMP) biosensor, comprised of a firefly luciferase variant that was coupled to the cGMP binding domain of human phosphodiesterase 5A, and loading of cells with a cell-permeable luciferase substrate to monitor cGMP production by Npr1 in real time in live cells. Briefly, human embryonic kidney 293 cells stably expressing the human Npr1 and the pGloSensor™-40F cGMP vector (“pGloSensor™-40F”) were generated. Stimulating these cells with the Npr1 agonists human NppA or NppB, luciferase-induced light production could be detected in a dose-dependent manner. HEK293 cells stably expressing human Npr2 and pGS-40F and cells only expressing pGS-40F were also generated to conduct secondary counter screens. In these cells, NppC or sodium nitroprusside were used to stimulate Npr2 or soluble guanylate cyclase which is endogenously expressed in HEK293 cells, respectively. The Npr2-NppC counter screen was employed to search for agents that minimally effected this agonist-receptor interaction. The Npr2-NppC system was used because the side effects of most drugs occur on related receptors. Npr1 and Npr2 are the most related receptors in sequence and function and there are no additional active receptor subtypes in this family of receptors. The procedure is described in detail below.
First, hNpr1 assays were repeated, at 11 concentrations on all selected compounds, to validate all positive compounds from the primary screen. This confirmed the selection criteria used for the selection of the active compounds. […]

[5] = test system: C57BL/6N mice; test: Contact hypersensitivity (DNFB) model of chronic scratching; format: in vivo, mouse; settings: 163 μg i.p.
Experimental: The contact hypersensitivity model was performed as follows: the back of 6-8-week old female C57BL/6N mice (Envigo) was shaved with electric clippers. After 2 days, 25 μl of 0.5% (v/v) dinitro-fluoro-benzene (DNFB) diluted in a 4:1 mixture of acetone and olive oil was applied to the shaved back skin. Hapten challenge was performed 5 days after sensitization by applying 40 μl of 0.2% (v/v) DNFB in the same vehicle on the left ear and 40 μl of vehicle alone on the right ear. […] Mice were then injected intraperitoneally with JS-11 (163 μg) or DMSO (20%) as a vehicle control. After 10 minutes, scratching was again observed for 30 minutes. To assess skin inflammation, ear thickness was measured with a thickness gauge (Mitutoyo, Aurora, Ill.) before and 30 minutes after JS-11/DMSO injections and normalized to ear thickness before hapten challenge.

Row | Structure (SMILES) | IC50 at 2 h [1] | Imax, cytotoxicity [2] | Cytotoxicity (in words) [2] | Direct effect on Firefly luciferase (in words) [3] | Effect on SNP-induced GloSensor signals (in words) [4] | Imax, Fluc in vitro [3] | further results
1 | COc1ccccc1-c1n[nH]c2ncc(C(=O)NCc3cccnc3)nc12 [JS-6, 3-(2-methoxyphenyl)-N-(pyridin-3-ylmethyl)-1H-pyrazolo[3,4-b]pyrazine-5-carboxamide] | 45 ± 43 µM | −36 ± 87% |  |  |  |  | 
2 | Cc1nn2c(c1-c1ccccc1OCc1ccccc1)N(C(=O)Cc1ccc3c(c1)OCO3)CCC2 [JS-8, 2-(benzo[d][1,3]dioxol-5-yl)-1-(3-(2-(benzyloxy)phenyl)-2-methyl-6,7-dihydropyrazolo[1,5-a]pyrimidin-4(5H)-yl)ethan-1-one] | 49 ± 14 µM | −22 ± 29% | are not cytotoxic; also recorded: does not produce cytotoxicity | do not directly inhibit luciferase; also recorded: does not inhibit Firefly luciferase | do not attenuate SNP dependent cGMP sensor activation; also recorded: does not block SNP-induced GloSensor™ signals |  | 
3 | Cl.O=C1Nc2ccccc2CN(CC2CCCCC2)C12CCNCC2 [JS-1, 4-(cyclohexylmethyl)-4,5-dihydrospiro[benzo[e][1,4]diazepine-3,4′-piperidin]-2(1H)-one hydrochloride] |  |  |  |  |  | −3 ± 3% | 
4 | CCC(CC)c1cc([C@H]2CN3CC[C@H]2C[C@@H]3CNS(=O)(=O)c2cccs2)nc(-c2ccncc2)n1 [JS-3, N-(((2R,4S,5R)-5-(6-(pentan-3-yl)-2-(pyridin-4-yl)pyrimidin-4-yl)quinuclidin-2-yl)methyl)thiophene-2-sulfonamide] |  |  |  |  |  | −1 ± 6% | IC50 [3]: 25 ± 4 µM
5 | Cc1noc(C)c1-c1cc(-c2ccccc2Oc2ccccc2)cn2cncc12 [JS-5, 3,5-dimethyl-4-(6-(2-phenoxyphenyl)imidazo[1,5-a]pyridin-8-yl)isoxazole] |  |  | are not cytotoxic; also recorded: does not produce cytotoxicity | do not directly inhibit luciferase; also recorded: does not inhibit Firefly luciferase | do not attenuate SNP dependent cGMP sensor activation; also recorded: does not block SNP-induced GloSensor™ signals |  | 
6 | Cc1cc(CNC(=O)c2ccc3c(c2)n(CC2CC2)c(=O)n3C2CCCCC2)on1 [JS-11, 1-cyclohexyl-3-(cyclopropylmethyl)-N-((3-methylisoxazol-5-yl)methyl)-2-oxo-2,3-dihydro-1H-benzo[d]imidazole-5-carboxamide] |  |  | are not cytotoxic; also recorded: does not produce cytotoxicity | do not directly inhibit luciferase; also recorded: does not inhibit Firefly luciferase | do not attenuate SNP dependent cGMP sensor activation; also recorded: does not block SNP-induced GloSensor™ signals |  | Skin inflammation (% ear thickness) after hapten challenge ([5]; measured before and 30 minutes after injection): had no effect on skin inflammation; also recorded: no differences in % ear thickness were detectable; Hapten-induced scratching responses ([5]; scratching observed 30 minutes, from 10 minutes after injection): attenuated hapten-induced scratching responses by about a half; also recorded: significantly reduced
